Test results published in US7867496B2, “Use of TGF-β antagonists to limit nephrotoxicity of immunosuppressive agents” (Genzyme Corporation, priority 2004, dated 2011).
“Also recorded” adds a separate entry of the source.

Key:
[1] = test system: TGF-β mRNA; experiment: intrarenal TGF-β mRNA by real-time PCR, TAC study; format: in vivo, rat; settings: TAC alone, 90 days post transplantation, with respect to isograft controls
Description: (§1) TAC was administered at 0.25 mg/kg i.m. for 90 days; and the anti-TGF-β antibody, 1D11, was administered at 1 mg/kg twice a week. The control antibody used was 13C4.
(§2) RT-PCR was performed using a Bio-Rad iCycler™ system (Bio-Rad, Hercules, Calif.). RNAs were isolated from renal tissues using a kit from Promega (Madison, […].) and reverse-transcribed into cDNAs by using a cDNA synthesis kit from Invitrogen (Carlsbad, Calif.). The specificity of primers was tested by running a regular PCR for 40 cycles at 95° C. for 20 seconds and 60° C. for 1 minute, followed by separating in ethidium bromide containing agarose gels. The real-time PCR was performed using a SYBR Supermix kit (Bio-RAD) (40 cycles at 95° C. for 20 s and 60° C. for 1 minute). The PCR efficiency was examined by serially diluting template cDNA. The melting curve data was collected to check the PCR specificity and proper negative controls were included in each assay. The mRNA level for each gene for each sample was normalized to β-actin mRNA and presented as 2-[(Ct/β-actin-Ct/gene of interest)] as described in Khanna et al. (2005) Nephron Exp. Nephrol., 101:119-126.
(§3) Intrarenal expression of TGF-β, NOX-1 and p22phox was analyzed by RT-PCR in renal tissues from (1) isografts, (2) TAC, (3) TAC+anti-TGF-β antibody, and (3) TAC+control antibody treated animals at 90 days post transplantation. […]

[2] = test system: NOX-1 mRNA; experiment: intrarenal NOX-1 mRNA by real-time PCR, TAC study; format: in vivo, rat; settings: TAC alone, 90 days, with respect to isograft controls
Description: as §1, §2, §3

[3] = test system: p22phox mRNA; experiment: intrarenal p22phox mRNA by real-time PCR, TAC study; format: in vivo, rat; settings: TAC alone, 90 days, with respect to isograft controls
Description: as §1, §2, §3

[4] = test system: RAC-1 mRNA; experiment: intrarenal RAC-1 mRNA by real-time PCR, TAC study; format: in vivo, rat; settings: TAC alone, 90 days, with respect to isograft controls
Description: as §1, §2, §3

[5] = test system: SOD mRNA; experiment: intrarenal SOD mRNA by real-time PCR, TAC study; format: in vivo, rat; settings: TAC alone compared to isograft controls
Description: as §1, §2
(§4) To further examine the effect of prolonged treatment with TAC on antioxidant genes, intrarenal mRNA expression of SOD and TRX was determined.

[6] = test system: TRX mRNA; experiment: intrarenal TRX mRNA by real-time PCR, TAC study; format: in vivo, rat; settings: TAC alone compared to isograft controls
Description: as §1, §2, §4

[7] = test system: p22phox protein; experiment: intragraft p22phox protein by Western blot, TAC study; format: in vivo, rat; settings: TAC compared to untreated allografts and isograft controls; monohydrate
Description: (§5) Frozen tissues were homogenized in ice-cold PBS with 1% Triton X-100, 1 mM phenylmethysulfonyl fluoride, 35 ng/ml pepstatin A and 10 ng/ml leupeptin. After centrifugation, 50 μg: of protein was electrophoresed by SDS PAGE as described in Khanna et al. (2005) Nephron Exp. Nephrol., 101:119-126. Blots were probed with appropriate dilutions of a polyclonal anti-p22phox antibody (RS554, a gift from Marsh Lab, Bozeman, Mont.) or anti-NOX antibody (Santa Cruz Biotechnology, Santa Cruz, Calif.), incubated with a horseradish peroxidase-conjugated secondary antibody at a 1:5,000 dilution, and visualized by enhanced chemiluminescence.
(§6) Expression of p22^phox and NOX-1 proteins was analyzed in kidney tissues from isografts, untreated allografts, and animals treated with TAC. Protein lysates (10 μg) were electrophoresed, transferred to nitrocellulose paper and probed with anti-p22^phox and anti NOX-1 antibodies.

[8] = test system: NOX-1 protein; experiment: intragraft NOX-1 protein by Western blot, TAC study; format: in vivo, rat; settings: TAC compared to untreated allografts and isograft controls; monohydrate
Description: as §5, §6

[9] = test system: renal transplant; experiment: renal transplant histology, TAC study; format: in vivo, rat; settings: TAC alone compared to isografts; monohydrate
From the text: A portion of transplanted kidneys from each animal was fixed with formalin and imbedded in paraffin. Hematoxylin and eosin (H&E) and periodic acid schiff (PAS) stainings were used to assess histological changes. Renal histological changes we quantified by standard procedures. The severity of the glomerular injury was scored as described in Khanna et al. (2000) Transplantation, 73:1543-1549. Briefly, in each field, at least 50-60 glomeruli were counted for each specimen and lesions were scored on a five-point scale (0, no proliferation, almost normal histology; 1, about 25% segmental lesion; 2, segmental lesion of greater than 25% but less than 50%; 3, fibrotic lesions with diffuse proliferation; 4, almost completely fibrotic changes). PAS staining was used to determine the extent of extracellular matrix protein accumulation (not scored). Interlobular arteries in H&E-stained slides and lesions were scored.
The slides were mounted with Permount™ for evaluation. Samples from each group were graded for histopathological changes and immunohistochemical staining. The intensity of immunostaining was graded from 0 (no staining) to 4+ (maximum staining). […]
The effect of TAC, TAC+a control antibody and TAC+anti-TGF-β antibody treatment on morphological changes was assessed by histopathological examination in H&E- and PAS-stained thin kidney sections were evaluated.

[10] = test system: TGF-β protein; experiment: intrarenal TGF-β protein immunohistochemistry, TAC study; format: in vivo, rat; settings: TAC alone
Description: Plasma levels of TGF-β protein were measured as described in Khanna et al. (1999) Transplantation, 67:882-889. Intrarenal protein expression of TGF-β was examined immunohistochemically as essentially as described in Khanna et al. (2000) Transplantation, 73:1543-1549; Khanna et al. (2002) Kidney Intl., 62:2257-63; and Khanna et al. (1999) Transplantation, 67:614-619. Formalin-fixed paraffin-embedded tissues were sliced into fine sections, deparaffinized in xylene and rehydrated in graded ethanol to phosphate-buffered saline (PBS). After blocking endogenous peroxidase activity for 30 minutes with methanol/H2O2 (18:1 vol/vol), nonspecific binding was blocked for 1 hour with 1.5% avidin/biotin diluted in PBS supplemented with 10% normal horse serum and 3% BSA. Tissue sections were incubated overnight at 4° C. with specific primary antibodies (50 μg/ml) in above-mentioned PBS. Following extensive washing in PBS, slides were incubated at room temperature for 1 hour with diluted (1:1,000) biotin-labeled anti-mouse IgG horse anti-serum and washed again extensively in PBS and then in the ABC solution for 30 minutes. The slides were developed for 10 minutes in diaminobenzidine (DAB) and rinsed in water for 10 minutes. The slides were then counterstained with hematoxylin and dehydrated in graded ethanol and xylene.
The slides were mounted with Permount™ for evaluation. […]

[11] = biological target: TGF-β; settings: cited from earlier work

Compound	increase in intrarenal TGF-β mRNA expression [1]	increase in intrarenal NOX-1 mRNA expression [2]	increase in intrarenal p22phox mRNA expression [3]	increase in intrarenal RAC-1 mRNA expression [4]	decrease in intrarenal SOD mRNA expression [5]	decrease in intrarenal TRX mRNA expression [6]	intragraft expression of p22phox protein [7]	intragraft expression of NOX-1 protein [8]	renal histological changes (H&E, PAS) [9]	intrarenal staining for TGF-β protein [10]	Kd ([11]; approximately, binds TGF-β1 only, read-out: antigen affinity)	TGF-β isoform binding specificity ([11]; mammalian isoforms of TGF-β)
C=CC[C@@H]1/C=C(\C)C[C@H](C)C[C@H](OC)[C@H]2O[C@@](O)(C(=O)C(=O)N3CCCC[C@H]3C(=O)O[C@H](/C(C)=C/[C@@H]3CC[C@@H](O)[C@H](OC)C3)[C@H](C)[C@@H](O)CC1=O)[C@H](C)C[C@@H]2OC (relative stereo) [TAC, [3S-[3R*[E (1S*,3S*,4S*)], 4S*,5R*,8S*,9E, 12R*,14R*,15S*,16R*,18S*,19S*,26aR*]]-5,6,8,11,12,13,14,15,16,17,18,19,24,25,26,26a-hexadecahydro-5,19-dihydroxy-3-[2-(4-hydroxy-3-methoxycyclohexyl)-1-methylethenyl]-14,16-dimethoxy-4,10,12,18-tetramethyl-8-(2-propenyl)-15,19-epoxy-3H-pyrido[2,1-c][1,4]oxaazacyclotricosine-1,7,20,21 (4H,23H)-tetrone, monohydrate]	37 fold	18 fold	31 fold	20 fold	27 fold	80 fold	increased intragraft expression; also recorded: elevated	increased intragraft expression; also recorded: elevated	marked histological changes; also recorded: statistically significant (p<0.036) difference	increased staining for TGF-β protein		
CAT192: fully human recombinant anti-TGF-β antibody generated by phage display; specifically binds TGF-β1 only											~8.4 pM	specifically binds TGF-β1 only
